The source made the active and inactive calls. No cut-off for these calls is given here.

In assay [1] the target is T1, Serine/threonine-protein kinase ULK3 (Homo sapiens) (UniProt Q6PHR2).
T1 sequence (whole entry): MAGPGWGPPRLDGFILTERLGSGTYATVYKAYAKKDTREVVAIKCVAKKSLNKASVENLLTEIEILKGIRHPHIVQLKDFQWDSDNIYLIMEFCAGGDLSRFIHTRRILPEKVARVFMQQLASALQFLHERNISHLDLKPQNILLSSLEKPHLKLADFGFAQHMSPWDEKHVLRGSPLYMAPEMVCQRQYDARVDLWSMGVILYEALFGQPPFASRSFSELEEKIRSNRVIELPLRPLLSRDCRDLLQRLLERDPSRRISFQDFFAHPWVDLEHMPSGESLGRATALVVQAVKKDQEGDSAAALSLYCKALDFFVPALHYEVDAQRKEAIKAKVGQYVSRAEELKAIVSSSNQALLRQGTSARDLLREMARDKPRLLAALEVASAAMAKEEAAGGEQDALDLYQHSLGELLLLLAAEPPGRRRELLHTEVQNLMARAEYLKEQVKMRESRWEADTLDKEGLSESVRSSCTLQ
In words: Inhibition of ULK3 (unknown origin) at 1 uM by Ambit Kinomescan binding assay relative to control.

Assay [2] concerns the target Cyclin-dependent kinase 14 (Homo sapiens) (UniProt O94921). In words: Inhibition of PFTAIRE1 Lys2 labeling site in human A-375 cells at 5 uM by KiNativ Profiling analysis relative to control.
In assay [3] the target is T2, Eukaryotic translation initiation factor 2-alpha kinase 3 (Homo sapiens) (UniProt Q9NZJ5).
T2 sequence (whole entry): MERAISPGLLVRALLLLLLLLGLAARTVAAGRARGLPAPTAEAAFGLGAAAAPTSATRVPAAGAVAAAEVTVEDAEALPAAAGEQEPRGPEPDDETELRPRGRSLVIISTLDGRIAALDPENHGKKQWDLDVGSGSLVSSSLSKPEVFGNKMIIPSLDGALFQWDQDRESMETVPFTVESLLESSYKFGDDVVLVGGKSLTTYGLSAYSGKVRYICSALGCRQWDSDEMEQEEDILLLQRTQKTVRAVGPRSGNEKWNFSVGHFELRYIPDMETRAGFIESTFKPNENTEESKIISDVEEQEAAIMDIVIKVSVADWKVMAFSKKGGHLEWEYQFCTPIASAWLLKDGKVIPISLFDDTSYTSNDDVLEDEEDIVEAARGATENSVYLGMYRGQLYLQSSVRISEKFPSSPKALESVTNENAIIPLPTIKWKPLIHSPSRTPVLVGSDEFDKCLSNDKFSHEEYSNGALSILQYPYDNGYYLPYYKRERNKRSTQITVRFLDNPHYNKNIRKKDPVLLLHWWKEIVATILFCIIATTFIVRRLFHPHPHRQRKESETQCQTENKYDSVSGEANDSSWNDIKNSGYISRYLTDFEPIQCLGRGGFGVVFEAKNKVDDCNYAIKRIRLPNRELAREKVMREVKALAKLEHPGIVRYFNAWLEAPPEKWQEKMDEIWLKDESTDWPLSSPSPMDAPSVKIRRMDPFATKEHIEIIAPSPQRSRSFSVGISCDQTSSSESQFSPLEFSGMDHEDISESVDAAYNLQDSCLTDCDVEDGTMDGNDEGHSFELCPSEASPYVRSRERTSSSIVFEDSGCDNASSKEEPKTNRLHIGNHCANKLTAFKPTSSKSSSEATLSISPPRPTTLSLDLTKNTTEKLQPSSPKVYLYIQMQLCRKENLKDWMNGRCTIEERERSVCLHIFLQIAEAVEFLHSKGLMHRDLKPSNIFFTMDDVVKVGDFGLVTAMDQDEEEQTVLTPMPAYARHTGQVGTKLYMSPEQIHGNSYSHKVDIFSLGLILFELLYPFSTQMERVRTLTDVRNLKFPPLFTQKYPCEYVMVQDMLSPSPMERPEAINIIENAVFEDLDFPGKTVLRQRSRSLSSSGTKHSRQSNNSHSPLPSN
In words: Inhibition of PEK K2 labeling site in human Huh-7 cells at 10 uM by KiNativ Profiling analysis relative to control. The class given is cell-based.

Assay [4] deals with Tyrosine-protein kinase Fer (Homo sapiens, UniProt P16591). The assay is described as follows: Inhibition of FER K1 labeling site in human Huh-7 cells at 1 uM by KiNativ Profiling analysis relative to control. The class given is cell-based.
Chain of Tyrosine-protein kinase Fer (P16591 whole entry, looked up): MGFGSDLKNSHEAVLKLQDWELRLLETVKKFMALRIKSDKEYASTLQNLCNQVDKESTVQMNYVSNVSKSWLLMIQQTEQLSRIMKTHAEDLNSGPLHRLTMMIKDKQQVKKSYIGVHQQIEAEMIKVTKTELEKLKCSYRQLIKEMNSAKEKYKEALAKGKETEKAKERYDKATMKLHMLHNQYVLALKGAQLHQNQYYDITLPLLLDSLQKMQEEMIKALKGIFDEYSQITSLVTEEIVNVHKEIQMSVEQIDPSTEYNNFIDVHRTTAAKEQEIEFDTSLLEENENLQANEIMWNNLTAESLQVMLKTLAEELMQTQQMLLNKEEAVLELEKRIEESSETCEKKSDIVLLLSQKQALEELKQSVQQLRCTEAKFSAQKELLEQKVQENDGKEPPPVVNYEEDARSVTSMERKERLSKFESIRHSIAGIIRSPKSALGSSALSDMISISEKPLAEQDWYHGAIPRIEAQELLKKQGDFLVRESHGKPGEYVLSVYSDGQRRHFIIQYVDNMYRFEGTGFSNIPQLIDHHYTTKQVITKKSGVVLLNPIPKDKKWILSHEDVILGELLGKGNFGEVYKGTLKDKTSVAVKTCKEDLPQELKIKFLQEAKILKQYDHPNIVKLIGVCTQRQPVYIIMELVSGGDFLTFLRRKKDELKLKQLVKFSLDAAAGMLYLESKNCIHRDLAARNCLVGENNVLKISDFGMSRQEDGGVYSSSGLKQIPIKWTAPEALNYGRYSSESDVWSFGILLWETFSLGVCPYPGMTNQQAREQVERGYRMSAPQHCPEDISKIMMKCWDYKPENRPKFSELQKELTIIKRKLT
In assay [5] the target is Mitogen-activated protein kinase 11 (Homo sapiens) (UniProt Q15759). In words: Inhibition of p38beta (unknown origin) at 10 uM by Ambit Kinomescan binding assay relative to control; values are per cent of control.
Chain of Mitogen-activated protein kinase 11 (Homo sapiens) (Q15759 whole entry): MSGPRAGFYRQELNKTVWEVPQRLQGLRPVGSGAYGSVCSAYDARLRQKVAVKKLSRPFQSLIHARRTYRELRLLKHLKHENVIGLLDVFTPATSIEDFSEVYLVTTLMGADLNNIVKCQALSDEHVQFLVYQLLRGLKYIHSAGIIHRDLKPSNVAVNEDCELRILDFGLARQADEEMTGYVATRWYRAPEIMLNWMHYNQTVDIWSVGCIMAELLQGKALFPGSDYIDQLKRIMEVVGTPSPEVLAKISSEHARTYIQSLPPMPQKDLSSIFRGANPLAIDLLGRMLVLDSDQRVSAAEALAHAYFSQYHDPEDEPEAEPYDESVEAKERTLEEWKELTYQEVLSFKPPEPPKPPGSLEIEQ
The target of assay [6] is Proto-oncogene tyrosine-protein kinase Src (Homo sapiens, UniProt P12931). The assay is described as follows: Inhibition of SRC (unknown origin) at 10 uM by Ambit Kinomescan binding assay relative to control; values are per cent of control.
Chain of Proto-oncogene tyrosine-protein kinase Src (P12931 2-536 limits assumed): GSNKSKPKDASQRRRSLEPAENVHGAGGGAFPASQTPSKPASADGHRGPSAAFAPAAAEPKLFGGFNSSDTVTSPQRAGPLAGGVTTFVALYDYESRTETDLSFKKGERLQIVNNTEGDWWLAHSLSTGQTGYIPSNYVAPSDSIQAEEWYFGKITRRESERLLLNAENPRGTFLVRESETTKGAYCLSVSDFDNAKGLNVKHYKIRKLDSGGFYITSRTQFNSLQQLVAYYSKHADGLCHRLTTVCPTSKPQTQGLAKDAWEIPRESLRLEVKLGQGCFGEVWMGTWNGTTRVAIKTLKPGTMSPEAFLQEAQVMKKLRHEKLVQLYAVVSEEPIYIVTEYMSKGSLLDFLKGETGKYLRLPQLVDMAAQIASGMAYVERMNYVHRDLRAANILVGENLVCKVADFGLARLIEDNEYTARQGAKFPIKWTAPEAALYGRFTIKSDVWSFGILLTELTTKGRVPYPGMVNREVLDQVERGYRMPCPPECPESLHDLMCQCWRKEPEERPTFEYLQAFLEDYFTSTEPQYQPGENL
Assay [7] has as its target T3, Aurora kinase A (Homo sapiens) (UniProt O14965).
T3 sequence (whole entry): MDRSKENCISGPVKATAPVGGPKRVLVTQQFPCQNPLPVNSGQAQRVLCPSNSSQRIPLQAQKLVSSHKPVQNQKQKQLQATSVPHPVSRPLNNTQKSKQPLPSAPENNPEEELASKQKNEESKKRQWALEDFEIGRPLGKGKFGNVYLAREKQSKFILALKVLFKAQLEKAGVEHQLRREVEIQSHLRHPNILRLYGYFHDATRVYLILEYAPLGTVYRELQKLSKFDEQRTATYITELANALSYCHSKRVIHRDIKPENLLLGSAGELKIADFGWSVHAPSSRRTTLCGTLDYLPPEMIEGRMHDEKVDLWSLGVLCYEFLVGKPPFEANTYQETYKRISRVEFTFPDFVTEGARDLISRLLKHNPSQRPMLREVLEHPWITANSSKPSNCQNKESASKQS
In words: Inhibition of AurA K2 labeling site harbouring VIHRDIKPENLLLGSAGELK in human Huh-7 cells at 1 uM by KiNativ Profiling analysis relative to control. The class given is cell-based.

For assay [8], the target named is Cyclin-dependent kinase 2 (Homo sapiens) (UniProt P24941). The assay is described as follows: Inhibition of CDK2 Lys1 labeling site in human Huh-7 cell lysate at 1 uM by KiNativ Profiling analysis relative to control. Type of assay: subcellular.
Assay [9] addresses Serine/threonine-protein kinase ATR (Homo sapiens) (UniProt Q13535). In words: Inhibition of ATR in human Huh-7 cell lysate at 1 uM by KiNativ Profiling analysis relative to control. Type of assay: subcellular.

Chain of Serine/threonine-protein kinase ATR (Homo sapiens) (Q13535 whole entry, looked up): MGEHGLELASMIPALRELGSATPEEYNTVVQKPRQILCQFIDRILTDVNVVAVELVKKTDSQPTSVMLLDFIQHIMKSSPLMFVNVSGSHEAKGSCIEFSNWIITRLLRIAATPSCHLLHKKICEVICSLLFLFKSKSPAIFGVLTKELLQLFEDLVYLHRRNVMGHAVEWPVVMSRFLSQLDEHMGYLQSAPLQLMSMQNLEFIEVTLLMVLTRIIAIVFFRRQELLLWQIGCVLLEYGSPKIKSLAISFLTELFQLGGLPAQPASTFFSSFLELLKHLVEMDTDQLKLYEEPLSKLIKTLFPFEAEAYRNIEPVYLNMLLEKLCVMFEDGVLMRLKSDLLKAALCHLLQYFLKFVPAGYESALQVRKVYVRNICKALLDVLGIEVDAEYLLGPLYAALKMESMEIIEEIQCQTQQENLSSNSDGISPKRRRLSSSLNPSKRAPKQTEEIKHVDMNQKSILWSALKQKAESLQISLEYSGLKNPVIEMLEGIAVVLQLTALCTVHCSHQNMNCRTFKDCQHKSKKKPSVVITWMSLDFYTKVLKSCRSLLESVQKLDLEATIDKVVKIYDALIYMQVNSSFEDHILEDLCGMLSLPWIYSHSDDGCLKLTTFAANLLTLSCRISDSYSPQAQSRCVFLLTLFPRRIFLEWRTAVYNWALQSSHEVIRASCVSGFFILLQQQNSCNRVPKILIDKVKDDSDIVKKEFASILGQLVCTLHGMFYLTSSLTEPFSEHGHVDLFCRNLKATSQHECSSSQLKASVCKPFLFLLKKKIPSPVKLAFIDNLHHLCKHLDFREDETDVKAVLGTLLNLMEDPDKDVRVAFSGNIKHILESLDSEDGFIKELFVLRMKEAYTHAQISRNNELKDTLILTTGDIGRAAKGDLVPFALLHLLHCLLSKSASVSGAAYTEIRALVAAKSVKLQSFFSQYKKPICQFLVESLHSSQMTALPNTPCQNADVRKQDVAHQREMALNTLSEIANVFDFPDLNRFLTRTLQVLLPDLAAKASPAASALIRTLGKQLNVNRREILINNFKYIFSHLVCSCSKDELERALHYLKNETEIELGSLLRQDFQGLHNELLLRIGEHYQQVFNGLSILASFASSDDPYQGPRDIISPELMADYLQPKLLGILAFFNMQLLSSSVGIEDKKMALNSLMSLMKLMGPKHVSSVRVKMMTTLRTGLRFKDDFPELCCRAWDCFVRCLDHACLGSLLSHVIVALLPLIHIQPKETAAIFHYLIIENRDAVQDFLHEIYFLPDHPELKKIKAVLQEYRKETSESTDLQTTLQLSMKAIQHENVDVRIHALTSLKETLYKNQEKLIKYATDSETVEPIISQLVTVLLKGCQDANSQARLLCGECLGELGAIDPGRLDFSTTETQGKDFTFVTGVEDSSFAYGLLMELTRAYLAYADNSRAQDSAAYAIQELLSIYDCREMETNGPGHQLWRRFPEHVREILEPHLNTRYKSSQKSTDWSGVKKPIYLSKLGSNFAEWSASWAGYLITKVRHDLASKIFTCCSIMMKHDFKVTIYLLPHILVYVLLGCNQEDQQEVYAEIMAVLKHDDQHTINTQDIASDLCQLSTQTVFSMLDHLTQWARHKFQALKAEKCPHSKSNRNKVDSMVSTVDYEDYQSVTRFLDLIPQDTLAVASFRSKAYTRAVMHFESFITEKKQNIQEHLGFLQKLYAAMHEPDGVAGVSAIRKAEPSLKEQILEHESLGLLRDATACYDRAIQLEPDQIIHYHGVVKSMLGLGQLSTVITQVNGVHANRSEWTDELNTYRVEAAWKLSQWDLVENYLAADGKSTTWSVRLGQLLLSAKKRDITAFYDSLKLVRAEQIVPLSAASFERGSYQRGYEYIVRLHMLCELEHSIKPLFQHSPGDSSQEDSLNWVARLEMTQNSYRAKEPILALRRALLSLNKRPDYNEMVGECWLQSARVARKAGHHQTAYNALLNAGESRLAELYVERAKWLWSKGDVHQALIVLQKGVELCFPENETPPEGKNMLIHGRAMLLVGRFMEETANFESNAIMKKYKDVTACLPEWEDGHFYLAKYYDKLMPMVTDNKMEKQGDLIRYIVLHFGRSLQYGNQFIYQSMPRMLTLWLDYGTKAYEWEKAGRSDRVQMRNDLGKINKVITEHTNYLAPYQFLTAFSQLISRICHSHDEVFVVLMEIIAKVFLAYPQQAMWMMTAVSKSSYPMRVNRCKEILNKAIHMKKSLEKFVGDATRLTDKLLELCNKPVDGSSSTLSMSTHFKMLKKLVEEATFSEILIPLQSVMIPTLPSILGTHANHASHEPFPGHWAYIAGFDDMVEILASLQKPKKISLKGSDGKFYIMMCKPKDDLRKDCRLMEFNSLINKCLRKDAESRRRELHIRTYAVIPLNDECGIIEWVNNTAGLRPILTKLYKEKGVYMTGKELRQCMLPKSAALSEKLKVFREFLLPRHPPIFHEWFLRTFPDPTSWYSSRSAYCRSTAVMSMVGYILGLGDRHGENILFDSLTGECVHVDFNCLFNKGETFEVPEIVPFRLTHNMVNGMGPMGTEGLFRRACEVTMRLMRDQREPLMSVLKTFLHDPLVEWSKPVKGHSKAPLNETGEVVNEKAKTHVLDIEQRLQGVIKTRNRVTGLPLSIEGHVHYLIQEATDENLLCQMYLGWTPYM
Chain of Cyclin-dependent kinase 14 (Homo sapiens) (O94921 whole entry, looked up): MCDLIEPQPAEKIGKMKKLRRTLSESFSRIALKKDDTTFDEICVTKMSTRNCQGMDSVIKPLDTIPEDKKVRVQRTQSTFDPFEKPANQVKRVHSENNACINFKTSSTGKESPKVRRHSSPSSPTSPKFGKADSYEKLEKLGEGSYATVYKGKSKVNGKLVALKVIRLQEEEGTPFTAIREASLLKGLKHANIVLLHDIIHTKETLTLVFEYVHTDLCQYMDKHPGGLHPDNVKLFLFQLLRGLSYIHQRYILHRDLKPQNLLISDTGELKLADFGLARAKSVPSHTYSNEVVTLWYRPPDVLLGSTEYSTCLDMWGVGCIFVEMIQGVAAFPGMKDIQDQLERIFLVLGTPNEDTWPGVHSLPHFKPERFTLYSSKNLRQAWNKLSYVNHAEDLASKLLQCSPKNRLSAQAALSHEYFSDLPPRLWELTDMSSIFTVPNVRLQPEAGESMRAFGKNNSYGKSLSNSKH

In assay [1], `CCN1CCN(Cc2ccc(NC(=O)c3ccc(C)c(/C=C/c4cnc5[nH]ccc5c4OC)c3)cc2C(F)(F)F)CC1` yielded an inhibition of 55%.
For `CCN1CCN(Cc2ccc(NC(=O)c3ccc(C)c(Oc4ccnc5[nH]ccc45)c3)cc2C(F)(F)F)CC1`, the inhibition in assay [2] was found to be 77.8%; in assay [4], 52.4%. The inhibition result in assay [3] and in [7] was “inactive” throughout. This compound came in with a percent of control in [5] of 0%. Moreover, in [6], the residual activity worked out at 0.2%.
Consider `CNc1cc(Oc2cc(C(=O)Nc3cc(N4CCN(C)CC4)cc(C(F)(F)F)c3)ccc2C)ncn1`, for which the inhibition in assay [8] stood at 17.7%; in assay [9], 22.6%.

A word on the inhibition: it is the change of the read-out against control, counted positive when it falls. The residual activity is the share of the control activity or signal that is left under treatment.
